From patent publication EP2433624B1, “Use of buparvaquone for controlling mites parasitising honeybees” (Bimeda International Pharmaceuticals Limited, priority 2010, dated 2012)
Where “and” joins values, the source holds several entries; their conditions need not be identical. Identical values can stand only once.

Columns and labels:
honeybee larvae = experiment: Toxicity of BPQ A in an aqueous solution when sprayed on honeybee larvae; type: in vivo, Apis mellifera; conditions: summary statement
Method: Example 3 - Toxicity of BPQ A in an aqueous solution when sprayed on honeybee larvae (50mL liquid at a concentration of 50mg/mL - BPQ A)
To spray eggs/larvae with different concentrations of the active ingredient/solvent and examine the effect on development of the young larvae
Eggs/larvae of similar age were attained by placing the queen bee in a frame cage for 36 hrs. Once the frame was laid up, the queen was released and the frame was replaced in the colony for 3 days. The frame cage allowed worker bees to attend the larvae, but prevented the queen from laying in the frame. On day 3/4, when the eggs were changing to larvae, the frame was removed and divided temporarily in 6 x 5cm strips at either side using grease proof paper to facilitate the assessment of product and solvent. Within each strip, three 3.5cm x 2.5cm squares (approximately 30 cells) of grease proof paper was removed and the developing larvae sprayed with BPQ A/solvent at the concentrations described above.

Varroa mites [1] = experiment: Toxicity to Varroa mites submerged in 3µL liquid in eppendorf tubes; type: in vivo; conditions: for mean number of live mites: day 3, 10 mites per tube
Method: Example 5 - Toxicity of BPQ A to Varroa mites
To assess the toxicity of BPQ to the Varroa mite
Varroa mites only feed on haemolymph of larvae and adult bees and thus would not ingest BPQ in a syrup/water solution. Therefore, it was necessary to identify a volume sufficient to permeate through the cuticle, but not drown the mites. After preliminary investigation it was concluded that 3µL/10 mites/eppendorf tube gave the maximum viability and the latter was used for this trial.
A total of 3µL of BPQ A/solvent was pipetted into each eppendorf tube. Ten mites taken from purple eye drone pupae were submerged in the liquid by tapping the tube gently and a fresh pupa was placed in each tube. 20 pinholes were made in each of the tubes and all samples were placed in the incubator at 30°C. Three replicates were made for each concentration and water was used in the control group. Concentrations of BPQ A and solvent were as described above (Section 1.1). The number of damaged or dead mites was counted on a daily basis. Damaged mites were mites that would not move in a coordinated fashion when touched gently 3 times with a fine brush.

[2] = tested on: adult honeybees (Apis mellifera); experiment: Toxicity of BPQ A to honeybees when fed in a sugar syrup solution (hoarding cages, 16 days); type: in vivo; conditions: summary statement over all the studies
Method: We have assessed the toxicity of BPQ to adult honeybees (Apis mellifera) using the 50 mg/mL liquid solution, BPQ A, under laboratory conditions
Example 1 - Toxicity of BPQ A to honeybees when fed in a sugar syrup solution (50mL liquid at a concentration of 50mg BPQ/mL)
Hoarding cages consisted of plastic tumblers (600mL) with an opening diameter of 84mm. The tumblers were paired with standard plastic petri-dishes and glass scintillation vials. To allow sufficient ventilation, 33 holes, approximately 3mm in diameter were made in the sides of each tumbler, in addition to two 30mm x 30mm holes fitted with nylon mesh. A circular hole was cut out of the bottom of the cup, which produced an opening large enough to allow a lidded scintillation vial to pass through the hole. Two holes were drilled into the lids of the scintillation vials with a 1mm bit and these vials were filled a 1:1 sugar solution, together with different concentrations of the solvent and product. […]
Three replicates were analysed at each concentration of BPQ A and solvent as outlined below, together with a control group which were only fed sugar and water throughout the experimental period.
Bees were maintained for 16 days at 32°C. Bees were fed additional food as required throughout the experimental period and the general behaviour and survival of the test bees were recorded on a daily basis. […]

mammals = conditions: dosages many thousands of times higher than those in the invention; cited from earlier work
honeybees = experiment: Survival of bees sprayed with aqueous solutions of BPQ; type: in vivo, Apis mellifera; conditions: 20 bees per cage
Method: (§1) Example 7 - Toxicity of BPQ B to Varroa mites on honeybees when sprayed with an aqueous solution of the active ingredient
(§2) A total of 20 newly emerged Varroa infested bees were placed in hoarding cages. The cages were prepared as described in Section 1.0, except that the air vents were reduced in size using parafilm to prevent the Varroa mites escaping during the test period. The mean(±se) number of mites per 20 bees was estimated prior to commencement and an additional 10 mites per cage were added. Mites were collected and introduced as described above. The treatment solution was made by dissolving BPQ B in solvent, followed by two aqueous serial dilutions producing a concentration of 500µg/mL and 5µg/mL. From the latter, further serial dilutions were carried in water producing the following concentrations: • 0.5µg/mL. (C1-C3) • 0.05µg/mL. (D1-D3) • 0.005µg/mL. (E1-E3) • 0.0005µg/mL. (F1-F3) • 0.00005µg/mL (G1-G3)
(§3) Three replicates were established at each concentration plus a control group which were sprayed with water only. All test groups were fed 10mL of 1:1 sucrose:water solution and placed in the incubator at 32°C and monitored on a daily basis for the number of mites and number of bees knocked down. At the end of five day treatment period, the percentage efficacy of the treatment was estimated by treating bees in all cages with Apistan. % efficacy = mites knocked from treatment/total mites (treatment+Apistan)*100 [formula]

Solubility in water = type: physicochemical
Varroa mites [3] = experiment: Efficacy of BPQ B against Varroa mites on honeybees sprayed with an aqueous solution; type: in vivo; conditions: summary statement
Method: as §1
To estimate the percentage efficacy of BPQ B at different concentrations when sprayed as an aqueous solution onto adult bees
as §2, §3

[4] = 0.00005µg/mL (g1-g3) aqueous solution sprayed
[5] = 0.0005µg/mL (f1-f3) aqueous solution sprayed
[6] = 0.005µg/mL (e1-e3) aqueous solution sprayed
[7] = 0.05µg/mL (d1-d3) aqueous solution sprayed
[8] = 0.5µg/mL (c1-c3) aqueous solution sprayed

CC(C)(C)[C@H]1CC[C@H](CC2=C(O)C(=O)c3ccccc3C2=O)CC1 [BPQ, buparvaquone]
toxicity to bee larvae (honeybee larvae): non-toxic
mean number of live mites (Varroa mites [1]; 0.00005µg/mL (g)): 8.66±1.73
mean number of live mites (Varroa mites [1]; 0.0005µg/mL (f)): 7.66±1.33
mean number of live mites (Varroa mites [1]; 0.5µg/mL): 3.33±2.4
toxicity to free living Varroa mites (Varroa mites [1]; summary statement): highly toxic
harm to adult bees and larvae [2]: harmless
neurotoxic effect (mammals): no neurotoxic effect whatsoever
Bees remaining (honeybees; [4]): 18 and 17 and 20
Survival rate on bees, Day 1 (honeybees; [4]): 20
Survival rate on bees, Day 2 (honeybees; [4]): 19 and 20
Survival rate on bees, Day 3 (honeybees; [4]): 19 and 17 and 20
Survival rate on bees, Day 4 (honeybees; [4]): 19 and 17 and 20
Survival rate on bees, Day 5 (honeybees; [4]): 19 and 17 and 20
Survival rate on bees, Day 6 (honeybees; [4]): 18 and 17 and 20
Bees remaining (honeybees; [5]): 20 and 19 and 18
Survival rate on bees, Day 1 (honeybees; [5]): 20
Survival rate on bees, Day 2 (honeybees; [5]): 20 and 19 and 18
Survival rate on bees, Day 3 (honeybees; [5]): 20 and 19 and 18
Survival rate on bees, Day 4 (honeybees; [5]): 20 and 19 and 18
Survival rate on bees, Day 5 (honeybees; [5]): 20 and 19 and 18
Survival rate on bees, Day 6 (honeybees; [5]): 20 and 19 and 18
Bees remaining (honeybees; [6]): 19 and 20
Survival rate on bees, Day 1 (honeybees; [6]): 20
Survival rate on bees, Day 2 (honeybees; [6]): 20
Survival rate on bees, Day 3 (honeybees; [6]): 19 and 20
Survival rate on bees, Day 4 (honeybees; [6]): 19 and 20
Survival rate on bees, Day 5 (honeybees; [6]): 19 and 20
Survival rate on bees, Day 6 (honeybees; [6]): 19 and 20
Bees remaining (honeybees; [7]): 20 and 19
Survival rate on bees, Day 1 (honeybees; [7]): 20
Survival rate on bees, Day 2 (honeybees; [7]): 20 and 19
Survival rate on bees, Day 3 (honeybees; [7]): 20 and 19
Survival rate on bees, Day 4 (honeybees; [7]): 20 and 19
Survival rate on bees, Day 5 (honeybees; [7]): 20 and 19
Survival rate on bees, Day 6 (honeybees; [7]): 20 and 19
Bees remaining (honeybees; [8]): 19 and 20
Survival rate on bees, Day 1 (honeybees; [8]): 20
Survival rate on bees, Day 2 (honeybees; [8]): 20 and 19
Survival rate on bees, Day 3 (honeybees; [8]): 20 and 19
Survival rate on bees, Day 4 (honeybees; [8]): 19 and 20
Survival rate on bees, Day 5 (honeybees; [8]): 19 and 20
Survival rate on bees, Day 6 (honeybees; [8]): 19 and 20
solubility in water (Solubility in water): completely insoluble
effective, topical application (Varroa mites [3]): ~40%
